ChEMBL document CHEMBL1150252, “Heteroaromatic ester inhibitors of hepatitis A virus 3C proteinase: Evaluation of mode of action” (Bioorg Med Chem, 2008)
Values joined by “and” are separate entries in the source; they are usually repeats but may differ in a detail not shown here. Identical values can stand only once.

What was measured:
[1] = system: Hepatovirus A; assay: Inhibition of hepatitis A virus 3C proteinase at 10 uM by microplate assay
[2] = system: Hepatovirus A; assay: Inhibition of hepatitis A virus 3C proteinase at 1 uM by microplate assay
[3] = system: Hepatovirus A; assay: Inhibition of hepatitis A virus 3C proteinase at 0.25 uM by microplate assay
[4] = target: Replicase polyprotein 1a (Severe acute respiratory syndrome-related coronavirus, UniProt P0C6U8); assay: Inhibition of SARS coronavirus 3CL proteinase
[5] = Inhibition of hepatitis A virus 3C proteinase by microplate assay; parameters: species or system Hepatovirus A
[6] = system: Hepatovirus A; assay: Ratio of Kcat to Km of hepatitis A virus 3C proteinase
[7] = system: Hepatovirus A; assay: Activity of hepatitis A virus 3C proteinase assessed as compound hydrolysis by HPLC
[8] = system: O=C(Oc1cncc(Br)c1)c1ccco1; assay: Activity of SARS coronavirus 3CL proteinase assessed as compound hydrolysis by HPLC; details: Severe acute respiratory syndrome-related coronavirus
[9] = system: O=C(Oc1cncc(Br)c1)c1ccco1; assay: Ratio of Kcat to Km of SARS coronavirus 3CL proteinase; details: Severe acute respiratory syndrome-related coronavirus

Nc1ccc(C(=O)Oc2cncc(Cl)c2)cc1
inhibition [1]: > 90%
inhibition [2]: 26%

O=C(Oc1cncc(Cl)c1)c1ccccc1
inhibition [3]: < 10%
inhibition [1]: > 90%
inhibition [2]: > 90%

O=C(Oc1cncc(Cl)c1)c1cccs1
inhibition [3]: 50%
inhibition [1]: 93% and > 90%
IC50 [4]: 500 nM
IC50 [5]: 470 nM
inhibition [2]: > 90%

O=C(/C=C/c1ccco1)Oc1cncc(Cl)c1
inhibition [3]: 43%
inhibition [1]: 83%
IC50 [5]: 140 nM
kcat/Km [6]: 1.4 ×10³ /M/s
Km [7]: 0.18 µM
kcat [7]: 25 ×10⁻⁵ /s
inhibition [2]: > 90%

O=C(Oc1ccc(Cl)nc1)c1cccs1
inhibition [1]: 25%

O=C(Oc1cncc(Cl)c1)c1ccc(-c2ccc(Cl)cc2)o1
inhibition [3]: 36%
inhibition [1]: > 90%

COc1cccc(C(=O)Oc2cncc(Cl)c2)c1
inhibition [1]: > 90%
inhibition [2]: 50%

O=C(Oc1cncc(Cl)c1)c1cccc(Cl)c1
inhibition [1]: 29%
inhibition [2]: 50%

O=C(Oc1cncc(Cl)c1)c1ccoc1
inhibition [1]: > 90%

O=C(Oc1cncc(Cl)c1)C1CCCCC1
inhibition [1]: 81%
inhibition [2]: 32%

Cc1ccc(OC(=O)c2cccs2)nc1
inhibition [1]: 12%

O=C(Nc1ccccn1)c1cccs1
inhibition [1]: < 10%

O=C(Oc1cccnc1Cl)c1cccs1
inhibition [1]: 11%

O=C(Oc1cncc(Cl)c1)c1ccc(-c2ccccc2)cc1
inhibition [1]: 39%
inhibition [2]: 23%

O=C(Oc1cncc(Cl)c1)c1cc2ccccc2[nH]1
inhibition [1]: 80%
inhibition [2]: 58%

O=C(Oc1cncc(Cl)c1)c1cc2ccccc2s1
inhibition [1]: > 90%
inhibition [2]: 47%

O=C(Oc1cncc(Cl)c1)c1cnc2cc(C(F)(F)F)ccc2c1O
inhibition [1]: < 10%

O=C(Oc1cccc(Cl)c1)c1ccco1
inhibition [1]: 11%

Cc1onc(-c2ccccc2)c1C(=O)Oc1cncc(Cl)c1
inhibition [3]: < 10%
inhibition [1]: < 10%

O=C(Oc1cncc(Cl)c1)c1cnccn1
inhibition [1]: 22%

O=C(Oc1cncc(Cl)c1)c1ccccc1[N+](=O)[O-]
inhibition [1]: > 90%
inhibition [2]: 24%

COc1ccccc1C(=O)Oc1cncc(Cl)c1
inhibition [3]: < 10%
inhibition [1]: 85%
inhibition [2]: 57%

O=C(Oc1cncc(Cl)c1)c1c[nH]cn1
inhibition [3]: 34%
inhibition [1]: 33%
inhibition [2]: 47%

CNc1ccc(C(=O)Oc2cncc(Cl)c2)cc1
inhibition [1]: 82%
inhibition [2]: < 10%

O=C(Oc1cncc(Cl)c1)c1cscn1
inhibition [3]: 37%
inhibition [1]: > 90%
inhibition [2]: 85%

O=C(Oc1ccccn1)c1cccs1
inhibition [1]: 89%
inhibition [2]: 8%

O=C(Nc1cccnc1)c1cccs1
inhibition [1]: < 10%

O=C(Oc1cncc(Cl)c1)c1ccc2[nH]ccc2c1
inhibition [3]: 22%
inhibition [1]: 87%
inhibition [2]: 60%

O=C(Oc1cncc(Cl)c1)c1ccc2c(c1)OCO2
inhibition [1]: > 90%
inhibition [2]: 11%

O=C(Oc1cncc(Cl)c1)c1c[nH]c2ccccc12
inhibition [1]: 13%

O=C(Oc1cncc(Cl)c1)c1cc2ccccc2o1
inhibition [3]: < 10%
inhibition [1]: > 90%
inhibition [2]: > 90%

O=C(Oc1cncc(Cl)c1)c1cc(F)c(Cl)nc1Cl
inhibition [1]: 44%
inhibition [2]: 19%

Cc1ccc(OC(=O)c2cccs2)c([N+](=O)[O-])n1
inhibition [1]: 14%

O=C(/C=C/c1ccccc1)Oc1cncc(Cl)c1
inhibition [1]: > 90%
inhibition [2]: 53%

Cc1ccc(C(=O)Oc2cncc(Cl)c2)cc1
inhibition [1]: 77%
inhibition [2]: 70%

Cc1ccc(C(=O)Oc2cncc(Cl)c2)s1
inhibition [3]: 24%
inhibition [1]: > 90%

O=C(Oc1cncc(Cl)c1)c1ccc(-c2cc(C(F)(F)F)ccc2Cl)o1
inhibition [1]: 76%
inhibition [2]: 36%

O=C(Oc1cncc(Cl)c1)c1cccc2ccccc12
inhibition [1]: > 90%
inhibition [2]: 30%

O=C(Oc1cncc(Cl)c1)c1cn[nH]c1
inhibition [1]: 56%
inhibition [2]: 21%

CCN(CC)c1ccc(C(=O)Oc2cncc(Cl)c2)cc1
inhibition [1]: 64%

O=C(Nc1ccc(Cl)cn1)c1cccs1
inhibition [1]: < 10%

Replicase polyprotein 1a (Severe acute respiratory syndrome-related coronavirus) (from UniProt P0C6U8)
Km [8]: 0.026 µM
kcat [8]: 17 ×10⁻⁵ /s
kcat/Km [9]: 7 ×10³ /M/s

O=C(Oc1cncc(Cl)c1)c1ccc(F)cc1
inhibition [1]: > 90%
inhibition [2]: 45%

O=C(OCc1cncc(Br)c1)c1ccco1
inhibition [1]: 67%

O=C(Nc1ccncc1)c1cccs1
inhibition [1]: < 10%

O=C(Nc1ccc(F)cn1)c1cccs1
inhibition [1]: < 10%

O=C(Oc1cncc(Cl)c1)c1ccc(-c2ccccc2C(F)(F)F)o1
inhibition [3]: < 10%
inhibition [1]: > 90%

O=C(Oc1cncc(Cl)c1)c1ccc(Cl)cc1O
inhibition [3]: 10%
inhibition [1]: > 90%
inhibition [2]: 59%

O=C(Oc1cncc(Cl)c1)c1cc2ccccc2oc1=O
inhibition [1]: 75%

O=C(Oc1ccncc1)c1cccs1
inhibition [1]: < 10%
inhibition [2]: 10%

COc1ccc(C(=O)Oc2cncc(Cl)c2)cc1OC
inhibition [1]: 59%

O=C(Oc1cncc(Cl)c1)c1ccncc1
inhibition [1]: 37%
inhibition [2]: 34%

O=C(Oc1cncc(Cl)c1)c1ccc(-c2ccc(Cl)cc2[N+](=O)[O-])o1
inhibition [1]: 40%

O=C(Oc1cncc(Cl)c1)c1ccc[nH]1
inhibition [3]: < 10%
inhibition [1]: 92%
inhibition [2]: < 10%

Cc1ccsc1C(=O)Oc1cncc(Cl)c1
inhibition [1]: < 10%

O=S(=O)(Nc1cccnc1)c1cccs1
inhibition [1]: < 10%

O=C(Oc1cncc(Cl)c1)c1ccc2ccccc2c1
inhibition [1]: 23%
inhibition [2]: 35%

O=C(Oc1cncc(Cl)c1)c1ccc(Br)o1
inhibition [3]: 54%
inhibition [1]: > 90%
IC50 [5]: 1200 nM

O=C(Oc1cncc(Br)c1)c1ccco1
inhibition [3]: 87%
IC50 [5]: 53 nM
kcat/Km [6]: 10 ×10³ /M/s
Km [7]: 0.12 µM
kcat [7]: 119 ×10⁻⁵ /s
inhibition [2]: > 90%

O=C(Oc1cccc(Cl)n1)c1cccs1
inhibition [1]: 16%

O=C(Oc1cncc(Cl)c1)c1cc([N+](=O)[O-])[nH]n1
inhibition [3]: 53%
inhibition [1]: 54%
IC50 [5]: 250 nM
inhibition [2]: 69%

O=C(Oc1cncc(Cl)c1)c1ccccc1Cl
inhibition [3]: 23%
inhibition [1]: > 90%
inhibition [2]: 67%

Cc1cccc(C(=O)Oc2cncc(Cl)c2)c1
inhibition [1]: 63%
inhibition [2]: 32%

Cc1ccccc1C(=O)Oc1cncc(Cl)c1
inhibition [1]: 82%

O=C(Nc1cccnc1Cl)c1cccs1
inhibition [1]: < 10%

O=C(Oc1cncc(Cl)c1)c1ccc(-c2ccccc2[N+](=O)[O-])o1
inhibition [1]: 37%

CN(C)c1ccc(C(=O)Oc2cncc(Cl)c2)cc1
inhibition [3]: 20%
inhibition [1]: > 90%
inhibition [2]: > 90%

O=C(Oc1cncc(Cl)c1)c1ccc2[nH]cnc2c1
inhibition [3]: 32%
inhibition [1]: 82%
inhibition [2]: 75%

Cc1cccc(OC(=O)c2cccs2)n1
inhibition [1]: 91%
inhibition [2]: < 10%

COc1ccc(C(=O)Oc2cncc(Cl)c2)cc1
inhibition [1]: 85%

O=C(Oc1cccnc1)c1cccs1
inhibition [1]: 83%
inhibition [2]: 21%

O=C(Oc1cncc(Cl)c1)c1ccc2[nH]nnc2c1
inhibition [1]: > 90%

Clc1cncc(OCc2ccco2)c1
inhibition [1]: < 10%

NS(=O)(=O)c1ccc(C(=O)Oc2cncc(Cl)c2)cc1
inhibition [3]: < 10%
inhibition [1]: 64%
inhibition [2]: 57%

O=C(Oc1cncc(Cl)c1)c1ccc2ncsc2c1
inhibition [3]: 27%
inhibition [1]: 74%
inhibition [2]: 54%

O=C(Oc1cncc(Cl)c1)c1ccco1
inhibition [3]: 49%
inhibition [1]: > 90%
IC50 [5]: 338 nM
kcat/Km [6]: 4.6 ×10³ /M/s
Km [7]: 0.24 µM
kcat [7]: 110 ×10⁻⁵ /s
inhibition [2]: > 90%

O=C(Cc1cccnc1)c1cccs1
inhibition [1]: 10%

O=C(Oc1ccco1)c1cccnc1
inhibition [1]: > 90%

Cc1ccc(OC(=O)c2cccs2)cn1
inhibition [1]: 23%

Cc1ncccc1OC(=O)c1cccs1
inhibition [1]: < 10%
inhibition [2]: < 10%
